# From PubChem BioAssay (NCI)
#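 Exposure lasted 48 hours, with cells grown in 96-well plates and compounds tested at five concentrations. Abbreviation: GI50, concentration required for 50% inhibition of growth. At the TGI there is no net growth.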
# Experiments:
# Assay in all cases: growth of human tumour cells (NCI), 48 h
# A498 renal = test system: A498 renal
# MALME-3M melanoma = test system: MALME-3M melanoma
# KM12 colon = test system: KM12 colon
# COLO 205 colon = test system: COLO 205 colon
# SK-MEL-5 melanoma = test system: SK-MEL-5 melanoma
# NCI-H226 lung = test system: NCI-H226 lung
# MCF7 breast = test system: MCF7 breast
# PC-3 prostate = test system: PC-3 prostate
# OVCAR-5 ovarian = test system: OVCAR-5 ovarian
# U251 CNS = test system: U251 CNS
# UO-31 renal = test system: UO-31 renal
# SF-268 CNS = test system: SF-268 CNS
# SNB-75 CNS = test system: SNB-75 CNS
# SK-OV-3 ovarian = test system: SK-OV-3 ovarian
# SF-539 CNS = test system: SF-539 CNS
# HCT-15 colon = test system: HCT-15 colon
# HCC-2998 colon = test system: HCC-2998 colon
# HCT-116 colon = test system: HCT-116 colon
# IGROV1 ovarian = test system: IGROV1 ovarian
# T-47D breast = test system: T-47D breast
# MDA-MB-435 = test system: MDA-MB-435
# UACC-62 melanoma = test system: UACC-62 melanoma
# SR leukemia = test system: SR leukemia
# UACC-257 melanoma = test system: UACC-257 melanoma
# TK-10 renal = test system: TK-10 renal
# HT29 colon = test system: HT29 colon
# MOLT-4 leukemia = test system: MOLT-4 leukemia
smiles,measurement,setting,value
CCN(CC)c1ccc(NC2=C(Cl)C(=O)c3nc(C)ccc3C2=O)cc1,GI50,A498 renal,11.9 µM
same,TGI,A498 renal,24.5 µM
same,GI50,MALME-3M melanoma,2.18 µM
same,TGI,MALME-3M melanoma,4.13 µM
same,GI50,KM12 colon,2.42 µM
same,TGI,KM12 colon,5.88 µM
same,GI50,COLO 205 colon,1.92 µM
same,TGI,COLO 205 colon,3.82 µM
same,GI50,SK-MEL-5 melanoma,1.75 µM
same,TGI,SK-MEL-5 melanoma,3.22 µM
same,GI50,NCI-H226 lung,2.27 µM
same,TGI,NCI-H226 lung,5.6 µM
same,GI50,MCF7 breast,1.94 µM
same,TGI,MCF7 breast,5.04 µM
same,GI50,PC-3 prostate,1.8 µM
same,TGI,PC-3 prostate,3.66 µM
same,GI50,OVCAR-5 ovarian,2.12 µM
same,TGI,OVCAR-5 ovarian,4.1 µM
same,GI50,U251 CNS,1.87 µM
same,TGI,U251 CNS,3.57 µM
same,GI50,UO-31 renal,1.54 µM
same,TGI,UO-31 renal,2.93 µM
same,GI50,SF-268 CNS,1.8 µM
same,TGI,SF-268 CNS,3.53 µM
same,GI50,SNB-75 CNS,1.98 µM
same,TGI,SNB-75 CNS,5.03 µM
same,GI50,SK-OV-3 ovarian,2.2 µM
same,TGI,SK-OV-3 ovarian,6.57 µM
same,GI50,SF-539 CNS,1.82 µM
same,TGI,SF-539 CNS,3.38 µM
same,GI50,HCT-15 colon,1.63 µM
same,TGI,HCT-15 colon,3.34 µM
same,GI50,HCC-2998 colon,1.89 µM
same,TGI,HCC-2998 colon,3.55 µM
same,GI50,HCT-116 colon,1.75 µM
same,TGI,HCT-116 colon,3.63 µM
same,GI50,IGROV1 ovarian,2.11 µM
same,TGI,IGROV1 ovarian,4.31 µM
same,GI50,T-47D breast,1.96 µM
same,TGI,T-47D breast,5.46 µM
same,GI50,MDA-MB-435,1.99 µM
same,TGI,MDA-MB-435,3.87 µM
same,GI50,UACC-62 melanoma,1.63 µM
same,TGI,UACC-62 melanoma,3.13 µM
same,GI50,SR leukemia,0.643 µM
same,TGI,SR leukemia,3.67 µM
same,GI50,UACC-257 melanoma,1.6 µM
same,TGI,UACC-257 melanoma,3 µM
same,GI50,TK-10 renal,2.05 µM
same,TGI,TK-10 renal,3.51 µM
same,GI50,HT29 colon,2.66 µM
same,TGI,HT29 colon,6.76 µM
same,GI50,MOLT-4 leukemia,1.91 µM
same,TGI,MOLT-4 leukemia,5.43 µM
